Experimental findings from ChEMBL document CHEMBL4364243, “Structure-activity relationships of potentiators of the antibiotic activity of clarithromycin against Escherichia coli” (2019) are described below.

Molecules are shown by their SMILES. ≈ marks a conversion by molar mass, not a printed value. Calls of active or inactive are those of the source. No cut-off for these calls is given here. Bridge positions count the residues as written; N and C are the ends. Square brackets hold non-standard residues; d marks the D form. Peptide text beside a SMILES is read from it. * marks the point of attachment. X1 = CC[C@H](C)CCCCC(=O)*; βNA = c1ccc2cc(N*)ccc2c1; Dab = NCC[C@H](N)C(=O)O

Experiment [1] concerns Escherichia coli. Briefly: Antibacterial activity against Escherichia coli ATCC 25922 incubated for 24 hrs by serial dilution method. In kind it is functional. To be noted: ATCC 25922, 24 h.
Experiment [2] relates to Escherichia coli. Briefly: Potentiation of clarithromycin-induced antibacterial activity against Escherichia coli ATCC 25922 assessed as clarithromycin MIC at 12.5 ug/ml incubated for 24 hrs by microtiter plate reader analysis (reference value: 64 microg/ml). Type of experiment: functional. As to conditions: ATCC 25922, 24 h.
Experiment [3] deals with Escherichia coli. Description: Potentiation of clarithromycin-induced antibacterial activity against Escherichia coli ATCC 25922 assessed as fold reduction in clarithromycin MIC at 12.5 ug/ml incubated for 24 hrs in presence of clarithromycin. Type of experiment: functional.
For another experiment, the system named is Pseudomonas aeruginosa. Description: Potentiation of levofloxacin-induced antibacterial activity against Pseudomonas aeruginosa assessed as concentration required to decrease levofloxacin MIC by 8 fold in presence of levofloxacin. As to conditions: read-out: MEC. Type of experiment: functional.
For experiment [4], the system named is Escherichia coli ATCC 25922. Briefly: Inhibition of efflux pump in CCCP-pretreated Escherichia coli ATCC 25922 assessed as […] by measuring decrease in fluorescence intensity pre-incubated for 5 mins followed by glucose addition by Hoechst 33342 staining based fluorescence assay.
The test system of experiment [5] is Escherichia coli ATCC 25922. Briefly: Induction of outer membrane permeabilization/inhibition of AcrAB-TolC efflux pump in Escherichia coli ATCC 25922 assessed as increase in NPN uptake incubated for 10 mins in dark by fluorescence assay.
Experiment [6] has as its system Escherichia coli. Description: Induction of inner membrane permeabilization in Escherichia coli ATCC 25922 assessed as increase in propidium iodide uptake at 1/32 to 1/2 times MIC by PI staining based flow cytometric analysis. Type of experiment: organism-based. For orientation: In flow cytometry, cells or beads pass a laser one at a time.
The subject of experiment [7] is Escherichia coli. Briefly: Potentiation of calrithromycin-induced antibacterial activity against Escherichia coli ATCC 25922 assessed as clarithromycin MIC at 50 ug/ml incubated for 24 hrs by microtiter plate reader analysis (reference value: 64 microg/ml). Type of experiment: functional. To be noted: ATCC 25922, 24 h.
Experiment [8] deals with Escherichia coli. Description: Potentiation of clarithromycin-induced antibacterial activity against Escherichia coli ATCC 25922 assessed as fold reduction in clarithromycin MIC at 50 ug/ml incubated for 24 hrs in presence of clarithromycin. In kind it is functional.
Experiment [9] relates to Escherichia coli ATCC 25922. Description: Induction of outer membrane permeabilization/inhibition of AcrAB-TolC efflux pump in Escherichia coli ATCC 25922 assessed as increase in NPN uptake at 1/32 to 1/2 times MIC incubated for 10 mins in dark by fluorescence assay.

One may read the MIC as the least concentration at which growth counts as inhibited. Compound `CC[C@H]1OC(=O)[C@H](C)[C@@H](O[C@H]2C[C@@](C)(OC)[C@@H](O)[C@H](C)O2)[C@H](C)[C@@H](O[C@@H]2O[C@H](C)C[C@H](N(C)C)[C@H]2O)[C@](C)(OC)C[C@@H](C)C(=O)[C@H](C)[C@@H](O)[C@]1(C)O` [CLARITHROMYCIN] had a minimum inhibitory concentration (MIC) against Escherichia coli [1] of 64 µg/mL (≈ 85.6 µM).
For `NCC[C@H](N)C(=O)NC(CCc1ccccc1)CCc1ccccc1`, the MIC in the experiment on Escherichia coli [2] amounted to 32 µg/mL; in the experiment on Escherichia coli [1], 100 µg/mL (≈ 295 µM). The “fold change (FC)” value in the experiment with Escherichia coli [3] is recorded as 2.
In the case of `NC[C@@H](N)CCCNC(CCc1ccccc1)CCc1ccccc1`, the minimum inhibitory concentration (MIC) turned out to be 4 µg/mL with Escherichia coli [2] and 25 µg/mL (≈ 73.6 µM) with Escherichia coli [1]. The “fold change (FC)” value in the experiment on Escherichia coli [3] is recorded as 16.
For `NC[C@@H](N)CCNC(CCc1ccccc1)CCc1ccccc1`, the minimum inhibitory concentration (MIC) in the experiment with Escherichia coli [2] amounted to 32 µg/mL; with Escherichia coli [1], 100 µg/mL (≈ 307 µM). Moreover, the “fold change (FC)” value with Escherichia coli [3] is given as 2.
For `CN(C(=O)[C@@H](N)CCCN)C(c1ccccc1)c1ccccc1` the same measures were 32 µg/mL, over 100 µg/mL and 2.
For the compound `NCCC[C@H](NC(=O)[C@@H](N)Cc1ccccc1)C(=O)Nc1ccc2ccccc2c1`, the minimal effective concentration with Pseudomonas aeruginosa was determined as 5 µg/mL.
As for `CN(C(=O)[C@@H](N)CCCN)C(Cc1ccccc1)Cc1ccccc1`, the minimal inhibitory concentration (MIC) in the experiment on Escherichia coli [2] was 32 µg/mL; in the experiment with Escherichia coli [1] it was over 100 µg/mL. For the same compound, the “fold change (FC)” value in the experiment on Escherichia coli [3] came to 2.
With `N=C(N)NCCC[C@H](N)C(=O)NC(CCc1ccccc1)CCc1ccccc1`, the MIC was 32 µg/mL in the experiment with Escherichia coli [2] and over 100 µg/mL with Escherichia coli [1]. The “fold change (FC)” value with Escherichia coli [3] was found to be 2.
As for `NC[C@@H](N)CC(=O)NC(CCc1ccccc1)CCc1ccccc1`, the minimal inhibitory concentration (MIC) stood at 64 µg/mL in the experiment with Escherichia coli [2] and 200 µg/mL (≈ 589 µM) with Escherichia coli [1]. Besides, the “fold change (FC)” value in the experiment with Escherichia coli [3] is 1.
In the same order, the values of `NCCC[C@H](N)C(=O)NC(Cc1ccccc1)Cc1ccccc1` are 32 µg/mL, over 100 µg/mL and 2.
For `NC[C@@H](N)CCC(=O)NC(CCc1ccccc1)CCc1ccccc1` the same measures were 32 µg/mL, 100 µg/mL (≈ 283 µM) and 2.
With `NCC[C@H](N)CCNC(CCc1ccccc1)CCc1ccccc1`, in experiment [4], the inhibition result is “Dose-dependent effect”. Moreover, in experiment [5], the Activity entry is “Dose-dependent effect”. Besides, the minimal inhibitory concentration (MIC) in the experiment on Escherichia coli [2] came out at 2 µg/mL; against Escherichia coli [1], 100 µg/mL (≈ 295 µM). In addition, the result with Escherichia coli [6] was inactive. Also, the “fold change (FC)” value with Escherichia coli [3] turned out to be 32.
For `NCCC[C@H](N)CNC(CCc1ccccc1)CCc1ccccc1`, the results for the MIC in the experiment on Escherichia coli [2] and in the experiment with Escherichia coli [1] were 8 µg/mL and 25 µg/mL (≈ 73.6 µM), respectively. Besides, the “fold change (FC)” value in the experiment on Escherichia coli [3] was 8.
For `NCC[C@H](N)CC(=O)NC(CCc1ccccc1)CCc1ccccc1` the same measures were 4 µg/mL, 100 µg/mL (≈ 283 µM) and 16.
Regarding `N=C(N)NCCC[C@H](NC(=O)[C@@H](N)Cc1ccccc1)C(=O)Nc1ccc2ccccc2c1` [PABETAN] (H-Phe-Arg-βNA), in the experiment on Pseudomonas aeruginosa, the minimal effective concentration came out at 10 µg/mL. Also, the results for the minimum inhibitory concentration (MIC) in the experiment with Escherichia coli [7] and in the experiment on Escherichia coli [1] were 16 µg/mL and over 100 µg/mL, respectively. Also, the “fold change (FC)” value in the experiment on Escherichia coli [8] is recorded as 4.
Turning to `NCCC[C@@H](N)C(=O)N[C@H](CCc1ccccc1)C(=O)Nc1cnc2ccccc2c1`, the minimal effective concentration with Pseudomonas aeruginosa stood at 10 µg/mL.
As to `CNCCC[C@H](N)C(=O)NC(CCc1ccccc1)CCc1ccccc1`, the minimal inhibitory concentration (MIC) in the experiment on Escherichia coli [2] came out at 64 µg/mL; against Escherichia coli [1] it was 100 µg/mL (≈ 272 µM). Further, in the experiment with Escherichia coli [3], the “fold change (FC)” value was found to be 1.
In the same order, the values of `NCCC[C@H](N)C(=O)NC(CCc1ccccc1)CCc1ccccc1` are 16 µg/mL, over 100 µg/mL and 4.
In the case of `COc1ccc(CN2CCN(C(CCc3ccccc3)CCc3ccccc3)CC2)cc1`, the MIC in the experiment on Escherichia coli [2] is 64 µg/mL; against Escherichia coli [1], over 100 µg/mL. Besides, in the experiment with Escherichia coli [3], the “fold change (FC)” value was found to be 1.
For `NCC[C@H](N)CNC(CCc1ccccc1)CCc1ccccc1` the same measures were 16 µg/mL, 100 µg/mL (≈ 307 µM) and 4.
In the same order, the values of `CN(C(=O)[C@@H](N)CCCN)C(CCc1ccccc1)CCc1ccccc1` are 32 µg/mL, over 100 µg/mL and 2.
For `NCCC[C@H](N)C(=O)NC(c1ccccc1)c1ccccc1` the same measures were 64 µg/mL, over 100 µg/mL and 1.
For the compound `NCCC[C@@H](N)C(=O)NC(CCc1ccccc1)CCc1ccccc1`, the MIC with Escherichia coli [2] was 32 µg/mL; in the experiment on Escherichia coli [1], over 100 µg/mL. In the experiment with Escherichia coli [3], the “fold change (FC)” value came to 2.
In the case of `NCCC[C@@H](N)C(=O)N[C@H](CCc1ccccc1)CSc1ccc(Cl)cc1`, the minimal effective concentration in the experiment on Pseudomonas aeruginosa stood at 1.25 µg/mL.
With `CN(C)CCC[C@H](N)C(=O)NC(CCc1ccccc1)CCc1ccccc1`, the values for the MIC in the experiment on Escherichia coli [2] and with Escherichia coli [1] were 64 µg/mL and over 100 µg/mL, respectively. In the experiment on Escherichia coli [3], the “fold change (FC)” value is given as 1.
In the case of `CC[C@H](C)CCCCC(=O)N[C@@H](CCN)C(=O)N[C@H](C(=O)N[C@@H](CCN)C(=O)N[C@H]1CCNC(=O)[C@H]([C@@H](C)O)NC(=O)[C@H](CCN)NC(=O)[C@H](CCN)NC(=O)[C@H](CC(C)C)NC(=O)[C@@H](Cc2ccccc2)NC(=O)[C@H](CCN)NC1=O)[C@@H](C)O` (X1-[Dab]T[Dab][Dab][Dab][dF]L[Dab][Dab]T; lactam 4-C), the result (in the experiment on Escherichia coli [6]; in [9]) was Active. This compound also yielded a minimum inhibitory concentration (MIC) against Escherichia coli [1] of 1.56 µg/mL (≈ 1.3 µM).
As to `NCCC[C@@H](N)C(=O)N[C@H](CCc1ccccc1)COc1ccc(Cl)cc1`, the minimal effective concentration with Pseudomonas aeruginosa is 5 µg/mL.
Turning to `CN1CCN(C(CCc2ccccc2)CCc2ccccc2)CC1`, the MIC was 64 µg/mL in the experiment on Escherichia coli [2] and over 100 µg/mL in the experiment on Escherichia coli [1]. The “fold change (FC)” value with Escherichia coli [3] amounted to 1.
For the compound `NCCC[C@@H](N)C(=O)N[C@H](CCc1ccccc1)C(=O)Nc1ncc(C(=O)Nc2cnc3ccccc3c2)o1`, the minimal effective concentration in the experiment on Pseudomonas aeruginosa was determined as 5 µg/mL.
